Measured values: article PMC4703859, “Efficient backbone cyclization of linear peptides by a recombinant asparaginyl endopeptidase” (Nature Communications, 2015)
Values belong to the molecule of their own block, whether it stands above or below them. Where a SMILES comes first, the peptide text is derived from it. [ ]: non-standard residue; d: D form. The star is where a group is joined. Sta = CC(C)C[C@H](N)[C@@H](O)CC(=O)O; Isovaleryl = CC(C)CC(=O)*

What was measured:
rOaAEP1b [1] = assay: Inhibition assay, enzyme activity against wt IQF peptide; assay type: biochemical, Oldenlandia affinis; conditions: 40 min pre-incubation, wt IQF peptide 11 μM, 90 min
Experimental: To investigate the impact of inhibitors on enzyme activity against the wt IQF peptide, rOaAEP1b (4.4 μg ml^–1 total protein) was incubated with the indicated concentration of E64, Ac-YVAD-CHO, pepstatin A and iodoacetamide for 40 min before addition to the substrate (11 μM). Enzyme activity against the wt IQF peptide was then assessed as described above.
Supplementary Figure 3: rOaAEP1b activity against the wt IQF peptide in the presence of protease inhibitors. rOaAEP1b (~4.4 µg ml-1 total protein) was allowed to cleave the wt IQF peptide (11 µM) and fluorescence intensity was recorded every minute for 90 min. The enzyme activity in the presence of inhibitors is reported relative to a no inhibitor control at the 90 min time point. Each data point represents the average of two technical replicates and error bars report the range.
(1 picture or pasted object on this page, not shown here)

rOaAEP1b [2] = assay: Cyclization assay of linear peptides followed by MALDI MS; assay type: biochemical, Oldenlandia affinis
Experimental: Linear target peptides (280 μM) were incubated with rOaAEP1b (12 μg ml^−1 total protein unless otherwise indicated) in activity buffer. The reaction was allowed to proceed for up to 22 h at room temperature and was analysed by matrix-assisted laser desorption/ionization MS (MALDI MS), RP-HPLC or NMR as appropriate.
To confirm the presence of cyclic product, R1 derivatives processed by rOaAEP1b were subsequently digested with endoGlu-C (25 μg ml^−1) in reaction buffer (50 mM Tris-HCl, 0.5 mM Glu–Glu, pH 8) such that the final dilution of the cyclization mix was 1:4. The reaction was allowed to proceed for 18 h at 37 °C before analysis by MALDI MS.
Cyclization of linear target peptides was monitored by MALDI MS. The reaction mixture (10–20 μl) was desalted using C18 zip tips and eluted in 4 μl 50% acetonitrile, 0.1% trifluoroacetic acid (TFA). A saturated MALDI matrix solution (α–cyano-4-hyroxycinnamic acid) prepared in 95% acetonitrile, 0.1% TFA was diluted 1:22 such that the final matrix solution comprised 90% acetonitrile, 0.1% TFA and 1 mM NH4H2PO4. Eluted samples were mixed 1:4 with the MALDI matrix, spotted onto a MALDI plate and analysed by an Ultraflex III TOF/TOF (Bruker) in positive reflector mode.

[3] = assayed against a small substrate; cited from earlier work
Experimental: The activity of rOaAEP1b against IQF peptides representing wt and mutant versions of the native kB1 C-terminal cleavage site was determined (Table 1; Supplementary Fig. 4a). […] This observation is consistent with the lack of cyclic product generated when the corresponding mutation was introduced in planta. Kinetic parameters (Vmax, Km and kcat) are reported where applicable (Table 1). The tur ...

- effect of inhibitor on rOaAEP1b activity (rOaAEP1b [1]; Ac-YVAD-CHO 500 μM): poor inhibitor
Molecule: Ac-YVAD-CHO

- effect of inhibitor on rOaAEP1b activity (rOaAEP1b [1]; pepstatin A 10 μM): not affected
Molecule: CC(C)CC(=O)N[C@H](C(=O)N[C@H](C(=O)N[C@@H](CC(C)C)[C@@H](O)CC(=O)N[C@@H](C)C(=O)N[C@@H](CC(C)C)[C@@H](O)CC(=O)O)C(C)C)C(C)C [pepstatin A] (Isovaleryl-VV[Sta]A[Sta]-OH)

- effect of inhibitor on rOaAEP1b activity (rOaAEP1b [1]; E64 250 μM): not affected
Molecule: CC(C)C[C@H](NC(=O)[C@H]1O[C@@H]1C(=O)O)C(=O)NCCCCN=C(N)N [E64]

Molecule: VFAEFLPLFSKFGSRMHILK [R1, anti-malarial peptide structurally unrelated to cyclotides]
- processing by rOaAEP1b of R1 peptides lacking a full recognition sequence (rOaAEP1b [2]; 22 h, MALDI MS): No processing
- cyclization by rOaAEP1b following the addition of N- and C-terminal AEP recognition sequences (rOaAEP1b [2]; 22 h post addition of rOaAEP1b, MALDI MS, cyclic product confirmed by endoGlu-C digestion): efficiently cyclized
- cyclization efficiency (rOaAEP1b [2]; rOaAEP1b): ~100%

Molecule: NC(=O)CI [iodoacetamide]
- effect of inhibitor on rOaAEP1b activity (rOaAEP1b [1]; iodoacetamide 1 mM, 4.4 μg ml^-1 total protein): inhibited

B1: kB1L31A: kB1 precursor with a Leu31Ala mutation (peptide, UniProt P56254 23-124, looked up, variant L31A)
pro-form: SELSDSHKTTLVNEIAEKMLQRKILDGVEATLVTDVAEKMFLRKMKAEAKTSETADQVFLKQLQLKGLPVCGETCVGGTCNTPGCTCSWPVCTRNGAPSLAA
modifications: pro-form
notes: kB1 precursor with a Leu31Ala mutation
- rOaAEP1b-mediated processing of modified kB1 and kB2 precursors over time (rOaAEP1b [2]; 280 μM peptide, pH 5, room temperature, 1, 5 and 22 h, MALDI MS, three technical replicates): cyclized far more slowly than the wt precursor

B2: recombinant human legumain: recombinant human AEP (protein, UniProt Q99538 18-323, looked up)
Legumain: VPIDDPEDGGKHWVVIVAGSNGWYNYRHQADACHAYQIIHRNGIPDEQIVVMMYDDIAYSEDNPTPGIVINRPNGTDVYQGVPKDYTGEDVTPQNFLAVLRGDAEAVKGIGSGKVLKSGPQDHVFIYFTDHGSTGILVFPNEDLHVKDLNETIHYMYKHKMYRKMVFYIEACESGSMMNHLPDNINVYATTAANPRESSYACYYDEKRSTYLGDWYSVNWMEDSDVEDLTKETLHKQYHLVKSHTNTSHVMQYGNKTISTMKVMQFQGMKRKASSPVPLPPVTHLDLTPSPDVPLTIMKRKLMNTN
- turnover rate (kcat) [3]: ~8 s⁻¹
